Test systems include A549 NSCLC; ACHN renal; CCRF-CEM leukemia; HT29 colon; K-562 leukemia; NCI-H522 lung; OVCAR-8 ovarian; SF-539 CNS; MDA-MB-231 breast; PC-3 prostate.
What all share (assay): NCI tumour cell line growth inhibition, 48 h

Data on 25 compounds can be found in PubChem BioAssay (NCI).

Values joined by “and” are separate entries in the source; they are usually repeats but may differ in a detail not shown here. Equal values may be shown once.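 Briefly, cells in 96-well plates were exposed to five compound concentrations for 48 h, and endpoints were estimated by linear interpolation. GI50 marks 50% less growth. Definition used: TGI = concentration required for complete inhibition of growth.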 A value given as a limit tells only on which side of the number the result lay.

Regarding `O=C(O)CCCl`, the TGI in the test with A549 NSCLC, in the test on ACHN renal, in the test with CCRF-CEM leukemia, in the test with HT29 colon, in the test on K-562 leukemia and in the test on NCI-H522 lung was greater than 5000 µM in each case. Moreover, the TGI in the test on OVCAR-8 ovarian and with SF-539 CNS was greater than 5000 µM each time.
Take `C=C1C(=O)OC2/C=C(\C)C(OC(C)=O)C3OC3C(C)(O)CC(OC(=O)/C(C)=C/C)C12` (stereo not given): the TGI in the test on A549 NSCLC was determined as 42.6 µM; in the test on ACHN renal, 31.7 µM; in the test on CCRF-CEM leukemia, 9.45 µM; in the test with HT29 colon it was 32.7 µM; in the test on K-562 leukemia, 18.9 µM; with NCI-H522 lung, 3.37 µM. In addition, the TGI in the test on OVCAR-8 ovarian was found to be 24.4 µM; with SF-539 CNS it was 14.2 µM.
Turning to `CCC(C)[C@@H](NCc1ccccc1)[C@H](OCc1ccccc1)[C@@H]1COC(C)(C)O1` (stereo not given in full), the TGI in the test on A549 NSCLC worked out at 78.8 µM; in the test with ACHN renal it was 49.7 µM; with CCRF-CEM leukemia it was 60.9 µM; in the test with HT29 colon, 23.7 µM; in the test with K-562 leukemia it was 59.8 µM; in the test with MDA-MB-231 breast, 40.4 µM. The TGI with OVCAR-8 ovarian is 45.4 µM; in the test on PC-3 prostate, greater than 100 µM.
`CCOC(=O)CCCn1nnc(C(=O)OCC)c1C(=O)OCC`: the TGI with A549 NSCLC, in the test on ACHN renal, with CCRF-CEM leukemia, with HT29 colon, with MDA-MB-231 breast and in the test with OVCAR-8 ovarian was greater than 100 µM throughout. For the same compound, the TGI in the test on PC-3 prostate and with SF-539 CNS was greater than 100 µM each time.
Turning to `CC1(C)O[C@H]2Cn3c(c(C#N)c4ccccc43)[C@H]2O1`, the TGI with A549 NSCLC, in the test on ACHN renal, in the test with HT29 colon, in the test with MDA-MB-231 breast, in the test on NCI-H522 lung and with SF-539 CNS was greater than 100 µM each time.
On to `O=C(CSc1nnc(-c2ccc(N=Cc3ccc(Cl)cc3)cc2)o1)Nc1ccccc1Cl`, for which the TGI in the test on A549 NSCLC, in the test with ACHN renal, in the test on CCRF-CEM leukemia, with HT29 colon, in the test with K-562 leukemia and with NCI-H522 lung was greater than 100 µM each time. Moreover, the TGI with OVCAR-8 ovarian is greater than 100 µM.
Consider `COc1cccc2c1OC1c3ccccc3OCC1C2` (stereo not given), for which the TGI in the test on A549 NSCLC, in the test on CCRF-CEM leukemia, in the test with HT29 colon, with K-562 leukemia, with MDA-MB-231 breast and in the test on OVCAR-8 ovarian was greater than 100 µM each time. Besides, the TGI in the test with PC-3 prostate and in the test on SF-539 CNS was greater than 100 µM throughout.
For `S=c1sc2c(Cl)ncnc2n1-c1ccccc1`, the TGI came to 67.8 µM in the test with A549 NSCLC; 30 µM in the test with ACHN renal; 24.1 µM in the test with HT29 colon; 3.8 µM in the test with NCI-H522 lung; 31.6 µM with OVCAR-8 ovarian; 29.9 µM with SF-539 CNS.
For the compound `Cc1c2cc[nH]c(C(F)(F)F)c2cc2c1nc1ccccc12`, the TGI in the test on A549 NSCLC, in the test with CCRF-CEM leukemia, with HT29 colon, in the test on K-562 leukemia, in the test with NCI-H522 lung and in the test on OVCAR-8 ovarian was greater than 125 µM each time. Also, in the test with SF-539 CNS, the TGI is greater than 125 µM.
Take `CCC1(O)CC(OC2CC(N(C)C)C(OC3CC4OC5CC(=O)C(C)OC5OC4C(C)O3)C(C)O2)c2c(cc3c(c2O)C(=O)c2c(O)ccc(O)c2C3=O)C1C(=O)OC` (stereo not given): the GI50 was 0.000823 µM in the test with ACHN renal; 0.000761 µM and 0.00754 µM in the test with K-562 leukemia; 0.00111 µM and 0.00788 µM in the test with NCI-H522 lung. The TGI in the test on NCI-H522 lung was 0.0319 µM and 0.0122 µM and 0.0182 µM; in the test on PC-3 prostate it was 0.0576 µM and 0.15 µM.
In the case of `CCN(CC)CCNC(=O)c1ccccc1NC(=O)C(=O)Nc1ccccc1C(=O)NCCN(CC)CC`, the TGI with A549 NSCLC was greater than 100 µM; in the test with ACHN renal it was greater than 100 µM; in the test with CCRF-CEM leukemia, 71.9 µM; with HT29 colon, greater than 100 µM; in the test with K-562 leukemia, 42.1 µM; in the test on NCI-H522 lung, greater than 100 µM. In addition, the values for the TGI in the test with OVCAR-8 ovarian and in the test with SF-539 CNS were greater than 100 µM and 62.2 µM, respectively.
On to `O=C(Nc1c(O)[nH]c(=S)[nH]c1=O)c1ccccn1`, for which the TGI with A549 NSCLC, in the test on ACHN renal, with CCRF-CEM leukemia, with HT29 colon, with K-562 leukemia and in the test with NCI-H522 lung was greater than 100 µM each time. In addition, the TGI with OVCAR-8 ovarian and in the test on SF-539 CNS was greater than 100 µM in each case.
Regarding `COc1cc(/C=C2/SC(c3ccccc3)N(c3ccc(NC(C)=O)cc3)C2=O)cc(OC)c1OC` (stereo not given), the TGI in the test on A549 NSCLC, in the test with ACHN renal, with HT29 colon, with K-562 leukemia, in the test with MDA-MB-231 breast and with NCI-H522 lung was greater than 100 µM in each case. For the same compound, the TGI in the test on OVCAR-8 ovarian and in the test with SF-539 CNS was greater than 100 µM in each case.
In the case of `CC12CC3C(CC1SCC(=O)O2)C3(C)C` (stereo not given), the TGI with A549 NSCLC, in the test with ACHN renal, in the test on CCRF-CEM leukemia, with HT29 colon, in the test on K-562 leukemia and in the test on OVCAR-8 ovarian was greater than 100 µM throughout. This compound also had a TGI in the test on SF-539 CNS greater than 100 µM.
Regarding `COC(=O)c1cn(CCCC(=O)O)nn1`, the TGI with A549 NSCLC, with ACHN renal, in the test with CCRF-CEM leukemia, in the test on HT29 colon, with MDA-MB-231 breast and with OVCAR-8 ovarian was greater than 100 µM in each case. The TGI in the test on PC-3 prostate and in the test on SF-539 CNS was greater than 100 µM in each case.
For the compound `CC(=O)NC1C(OCc2ccccc2)OC(CO)C(O)C1OCC(=O)NC(C)C(=O)NC(CCC(=O)NCCCCNc1ccc([N+](=O)[O-])c2[nH]c3ccccc3c(=O)c12)C(N)=O` (stereo not given), the TGI in the test on A549 NSCLC, with ACHN renal, with HT29 colon, in the test on K-562 leukemia, with MDA-MB-231 breast and in the test on OVCAR-8 ovarian was greater than 100 µM each time. Further, the TGI in the test on PC-3 prostate and in the test with SF-539 CNS was greater than 100 µM in each case.
For `C[N+]1(C)CCCC1C(=O)[O-]` (stereo not given), the TGI in the test on A549 NSCLC, with ACHN renal, with CCRF-CEM leukemia, in the test with HT29 colon, with K-562 leukemia and in the test on NCI-H522 lung was greater than 100 µM each time. In addition, the TGI with OVCAR-8 ovarian and in the test on SF-539 CNS was greater than 100 µM throughout.
As for `Cc1ccc(S(=O)(=O)N/N=C/c2oc(-c3cccc([N+](=O)[O-])c3)c(-c3cccc([N+](=O)[O-])c3)c2[N+](=O)[O-])cc1`, the TGI with A549 NSCLC is greater than 100 µM; in the test on ACHN renal it was greater than 100 µM; in the test with CCRF-CEM leukemia, 56.8 µM; in the test with HT29 colon it was greater than 100 µM; with K-562 leukemia, 69.9 µM; in the test on NCI-H522 lung, 28.4 µM. Also, the TGI in the test with OVCAR-8 ovarian and in the test with SF-539 CNS was greater than 100 µM in each case.
For `O=C(O)c1ccccc1.[Ag]`, the TGI was greater than 58.7 µM with A549 NSCLC; 19.1 µM with ACHN renal; 43.7 µM in the test with HT29 colon; greater than 26.4 µM in the test with K-562 leukemia; greater than 72.7 µM with OVCAR-8 ovarian; 29.8 µM with PC-3 prostate. In the test with SF-539 CNS, the TGI worked out at 45.4 µM.
Turning to `CO/C(=N\N=C\c1cc(OC)ccc1OC)c1ccncc1`, the TGI in the test with A549 NSCLC, with ACHN renal, with CCRF-CEM leukemia, in the test on K-562 leukemia, with OVCAR-8 ovarian and in the test on PC-3 prostate was greater than 10 µM each time. Moreover, the TGI with SF-539 CNS was greater than 10 µM.
On to `CC(=O)OCC1OC(Nc2[nH]c(=O)n(C)c(=O)c2-c2csc(N)n2)C(OC(C)=O)C(OC(C)=O)C1OC(C)=O` (stereo not given), for which the TGI in the test with A549 NSCLC, in the test with ACHN renal, in the test on CCRF-CEM leukemia, in the test on HT29 colon, with K-562 leukemia and with NCI-H522 lung was greater than 100 µM each time. Also, the TGI with OVCAR-8 ovarian and in the test on SF-539 CNS was greater than 100 µM in each case.
For `COC(=O)[C@H](Cc1ccccc1)NC(=O)c1ccc(CNC(=O)/C=C/c2ccc(-c3ccccc3)cc2)cc1`, the TGI is greater than 100 µM with A549 NSCLC; greater than 100 µM in the test on ACHN renal; greater than 100 µM with CCRF-CEM leukemia; greater than 100 µM in the test with HT29 colon; greater than 100 µM in the test on K-562 leukemia; 76.7 µM with MDA-MB-231 breast. For the same compound, the TGI in the test with OVCAR-8 ovarian and in the test on PC-3 prostate was greater than 100 µM throughout.
In the case of `CCC(C)[C@H](NC(=O)[C@H](Cc1ccccc1)NC(=O)N(CC)c1ccccc1)C(=O)N[C@@H](CC(C)C)C(=O)OC` (stereo not given in full), the TGI in the test with A549 NSCLC is greater than 100 µM; in the test on ACHN renal, 72.7 µM; in the test with CCRF-CEM leukemia it was 66.7 µM; in the test with MDA-MB-231 breast, greater than 100 µM; in the test with OVCAR-8 ovarian, greater than 100 µM; in the test with PC-3 prostate, greater than 100 µM. Moreover, the TGI in the test on SF-539 CNS is 93.8 µM.
As for `COc1c2c(c3c(c1C1OC(C)[C@@H](C)O1)CC(C)(C)O3)C(=O)c1ccccc1C2=O` (stereo not given in full), the TGI was greater than 100 µM with A549 NSCLC; greater than 100 µM with ACHN renal; 53.2 µM in the test on CCRF-CEM leukemia; greater than 100 µM in the test on HT29 colon; greater than 100 µM in the test with K-562 leukemia; greater than 100 µM in the test on OVCAR-8 ovarian. Also, the TGI with SF-539 CNS is greater than 100 µM.
On to `C1=C(c2ccccc2)CN(c2ccccc2)OC1`, for which the TGI with A549 NSCLC, with ACHN renal, in the test with CCRF-CEM leukemia, in the test with HT29 colon, in the test on K-562 leukemia and with NCI-H522 lung was greater than 100 µM each time. In the test with SF-539 CNS, the TGI is greater than 100 µM.
